Data on ten compounds can be found in ChEMBL document CHEMBL1129375, “Design and synthesis of a series of non-peptide high-affinity human corticotropin-releasing factor1 receptor antagonists” (J Med Chem, 1996).

In assay [1] the target is T1, Corticotropin-releasing factor receptor 1 (Homo sapiens, UniProt P34998).
T1 sequence (P34998 whole entry): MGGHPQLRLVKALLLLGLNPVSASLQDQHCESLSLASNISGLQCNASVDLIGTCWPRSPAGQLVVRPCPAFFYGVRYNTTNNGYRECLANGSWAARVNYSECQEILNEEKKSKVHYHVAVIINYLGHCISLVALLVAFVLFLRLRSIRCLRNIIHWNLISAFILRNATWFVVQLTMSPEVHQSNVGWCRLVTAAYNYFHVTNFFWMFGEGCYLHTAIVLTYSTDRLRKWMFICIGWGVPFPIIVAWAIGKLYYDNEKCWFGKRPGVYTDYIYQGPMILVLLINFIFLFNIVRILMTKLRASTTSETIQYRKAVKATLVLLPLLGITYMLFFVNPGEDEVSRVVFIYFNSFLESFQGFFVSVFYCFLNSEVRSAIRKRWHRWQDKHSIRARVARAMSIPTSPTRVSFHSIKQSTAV
Nature of the assay: Inhibition of [125I]CRF binding to human Corticotropin releasing factor receptor 1 tested at 6-12 doses.

The species entered for assay [2] is Homo sapiens. Nature of the assay: Compound was evaluated for the inhibition of CRF-stimulated cyclic adenosine monophosphate production. Type of assay: functional, organism-based.

pIC50, pKi: −log10 of the molar value.

What is called pKi is the Ki on a negative log10 scale, so that one unit is a factor of ten. For `CCCN(CC1CC1)c1cc(Nc2c(Cl)cc(Cl)cc2Cl)ncn1`, in assay [1], the pKi was < 5.00.
On the same count and under the same terms, the value for `CCCN(CC1CC1)c1nc(C)cc(Nc2c(Cl)cc(Cl)cc2Cl)n1` was < 5.00; that for `CCCN(CC1CC1)c1cc(C)nc(Nc2c(Cl)cc(Cl)cc2Cl)n1` was 7.15.
Still for that read-out and setting: as for `CCCN(CC1CC1)c1nc(C)nc(Nc2c(Cl)cc(Cl)cc2Cl)c1Br`, the figure is 8.70; as for `CCCN(CC1CC1)c1nc(C)nc(Nc2c(Cl)cc(Cl)cc2Cl)c1C`, 8.64.
The same measure, in the same setting: the value for `CCCN(CC1CC1)c1nc(C)nc(N(C)c2c(Cl)cc(Cl)cc2Cl)c1C` was 6.82.
What is called pIC50 is the negative decadic logarithm of the IC50, by convention in mol/L. Low values mean a large IC50, high ones a small IC50. Turning to `CCCN(CC1CC1)c1nc(C)nc(Nc2c(Cl)cc(Cl)cc2Cl)c1Cl`, the pKi in assay [1] is 8.77. Besides, in assay [2], the pIC50 is 7.00.
`CCCN(CCC)c1nc(C)nc(Nc2c(Cl)cc(Cl)cc2Cl)c1C` had a pKi in assay [1] of 8.60. This compound also showed a pIC50 in assay [2] of 6.60.
Regarding `CCCN(CC1CC1)c1cc(Nc2c(Cl)cc(Cl)cc2Cl)nc(C)n1`, the pKi in assay [1] is 7.52. The pIC50 in assay [2] was 5.43.
`CCCN(CC1CC1)c1nc(C)nc(Nc2c(Cl)cc(Cl)cc2Cl)c1CC` had a pKi in assay [1] of 8.42.
